Measured values taken from PMC4105438, “Novel Benzoxazine-Based Aglycones Block Glucose Uptake In Vivo by Inhibiting Glycosidases” (PLoS ONE, 2014).

Assays:
α-Glucosidase = molecular target: T1, α-Glucosidase (Saccharomyces cerevisiae, UniProt P53341); experiment: biochemical; conditions: 0–100 µM, pre-incubation 10 min 37°C, pH 6.9; NS = not significant
T1 construct: purchased SRL, Mumbai (India)
Procedure: (§1) Porcine pancreatic α-Amylase and Yeast α-Glucosidase were purchased from SRL, Mumbai (India). Glucose oxidase (GOD POD) kit was purchased from Piramal HealthCare Ltd, Mumbai (India). All other chemicals used were of analytical grade and purchased from Sigma Aldrich, St. Louis (USA) and SRL, Mumbai (India). All IR spectra were obtained in KBr disc on a Shimadzu FT-IR 157 Spectrometer. ^1H and ^13C NMR spectra were recorded on a Bruker WH-200 (400 MZ) spectrometer in CDCl3 or DMSO-d6 as solvent, using TMS as an internal standard and chemical shifts are expressed as ppm. Mass spectra were determined on a Shimadzu LC-MS. The elemental analyses were carried out using an Elemental Vario Cube CHNS rapid Analyzer. The progress of the reaction was monitored by TLC pre-coated silica gel G plates.
The α-glucosidase inhibitory activities of synthesized compounds were evaluated using the method developed by Tsujii et al.. Briefly, α-glucosidase was dissolved in phosphate buffer (50 mM, pH 6.9) and pre-treated with various concentrations of 1,3-benzoxazine derivatives (0–100 µM) independently for 10 min at 37°C. The reaction was initiated by the addition of 50 µL of 5 mM p-nitrophenyl- α -D-glucopyranoside solution in phosphate buffer (50 mM, pH 6.9). The enzyme reaction was carried out at 37°C for 30 min. The reaction was terminated by the addition of Na2CO3 (1 M). The enzymatic activity of α-glucosidase was quantified by measuring the absorption at 405 nm using a Varioskan multimode plate reader (Thermo Scientifics, USA). The inhibitory effect of compounds was defined as inhibitory activity (%) = (Abs Control – Abs Compound treated)/Abs Control ×100. Concentration-response assays were used to determine the potency (IC50) of 1,3-benzoxazine derivatives based on the logistic analysis of the concentration-response curve using Microsoft Excel.

[1] = molecular target: T2, Porcine pancreatic α-amylase (Sus scrofa, UniProt P00690); experiment: α-amylase inhibition assay (starch, DNS reagent); format: biochemical; conditions: 0–100 µM, pre-incubation 10 min 37°C, pH 6.9; NS = not significant
T2 construct: purchased SRL, Mumbai (India)
T2 sequence (P00690 16-511): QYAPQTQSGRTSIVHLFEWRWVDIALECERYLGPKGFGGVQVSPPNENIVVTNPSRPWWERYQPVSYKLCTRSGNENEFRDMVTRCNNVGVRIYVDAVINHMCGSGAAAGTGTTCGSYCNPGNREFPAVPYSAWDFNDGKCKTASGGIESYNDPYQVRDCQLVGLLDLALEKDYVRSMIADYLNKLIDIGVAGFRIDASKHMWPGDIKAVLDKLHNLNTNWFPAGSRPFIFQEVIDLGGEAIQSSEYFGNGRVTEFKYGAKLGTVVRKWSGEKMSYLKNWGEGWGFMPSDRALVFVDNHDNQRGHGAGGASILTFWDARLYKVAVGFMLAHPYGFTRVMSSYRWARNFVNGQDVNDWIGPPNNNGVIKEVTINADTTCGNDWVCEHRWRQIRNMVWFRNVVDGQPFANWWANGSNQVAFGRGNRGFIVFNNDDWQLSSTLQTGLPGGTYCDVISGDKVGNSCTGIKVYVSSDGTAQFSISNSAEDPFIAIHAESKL
Procedure: as §1, with “All IR spectra were obtained in KBr disc on a Shimadzu FT-IR 157 Spectrometer. ^1H and ^13C NMR spectra were recorded on a Bruker WH-200 (400 MZ) spectrometer in CDCl3 or DMSO-d6 as solvent, using TMS as an internal standard and chemical shifts are expressed as ppm.” left out
The α-amylase inhibition assay was performed according to a previous report. Porcine pancreatic α-amylase (3 units/mL) was dissolved in 0.1 M phosphate buffered saline, pH 6.9. […] The reaction was initiated by adding substrate solution (0.1% starch) to the incubation medium. After 10 min incubation, the reaction was stopped by adding 250 µL dinitrosalicylic (DNS) reagent (1% 3, 5-dinitrosalicylic acid, 0.2% phenol, 0.05% Na2SO3 and 1% NaOH in aqueous solution) to the reaction mixture. The reaction was terminated by keeping the reaction mixture in boiling water bath for 10 min. Thereafter, 250 µL of 40% potassium sodium tartarate solution was added to the mixtures to stabilize the colour. After cooling to room temperature in a cold water bath, the absorbance was recorded at 540 nm using a Varioskan multimode plate reader (Thermo Scientifics, USA). Acrabose was used as positive control. The percentage of inhibition was calculated using Abs Contol – Abs Sample ×100/Abs Control. Where Abs Control was the absorbance without sample, Abs sample was the absorbance of enzyme with compound.

rat intestinal maltase = experiment: Intestinal α-glucosidase inhibitory assay, maltose as substrate; format: biochemical
Procedure: (§2) Intestinal α-glucosidase activity was determined by measuring the amount of glucose hydrolyzed from maltose or sucrose. Briefly, rat intestinal acetone powder was homogenized in 0.9% saline and the suspension was centrifuged at 10,000 g for 30 min at 4°C and the supernatant obtained was used as enzyme source. […] After the respective incubation period, reaction was terminated by keeping the samples in boiling water bath for 10 min. The concentration of glucose released from the reaction mixtures was determined by using Glucose oxidase (GOD POD) kit according to the manufacturer’s protocol. Results were expressed as percentage inhibition of intestinal maltase/sucrase activity.

rat intestinal sucrase = molecular target: T3, rat intestinal sucrase (Rattus norvegicus, UniProt P23739); experiment: Intestinal α-glucosidase inhibitory assay, sucrose as substrate; format: biochemical
T3 construct: the supernatant obtained was used as enzyme source; tissue Sigma Aldrich, St. Louis (USA); host or cells: rat intestinal acetone powder (supernatant of the saline homogenate)
Procedure: as §2

[2] = system: overnight fasted Wistar rats; experiment: Oral maltose tolerance test; format: in vivo, rat
Text: (§3) Adult Wistar rats weighing 150–180 g were collected from the University Central Animal Facility and housed under a controlled environment. All animal experiments were approved by the Institutional Animal Ethical Committee (Order No : MGZ/2620/2011-12 Dated 31-01-2012; UOM/IAEC/18/2011), Department of Studies in Zoology, University of Mysore, Mysore and were in accordance with the guidelines of the Committee for the Purpose of Control and Supervision of Experiments on Animals (CPCSEA).
(§4) The experimental animals were randomly divided into 11 groups each consisting of 5 rats. […] Blood was collected from the tail vein to the tubes containing anticoagulant (2.5% trisodium citrate and 1.37% citric acid in the ratio 1∶5; anti-coagulant: blood) at time point 0 (just before sucrose/maltose administration), and subsequently at 30, 60, 90, 120 and 180 min after substrate (sucrose/maltose) administration. Plasma was separated by centrifuging the samples at 2000 rpm for 10 min and stored at −20°C until analysis. Plasma glucose concentration was determined by using the Glucose oxidase (GOD POD) kit according to the manufacturer’s protocol.

[3] = system: overnight fasted Wistar rats; experiment: Oral sucrose tolerance test; format: in vivo, rat
Text: as §3, §4

porcine diaphragm = experiment: Glucose uptake study in porcine diaphragm; conditions: 50 and 100 µM, with and without insulin (1 U), 5 mM glucose
Procedure: Porcine diaphragm was purchased from a slaughter house, and cleaned using ice cold 0.9% saline several times to remove blood stains. This diaphragm was used for glucose uptake and inhibition by compound 7. Diaphragm (100 mg) was suspended in a 24 well culture plate containing 500 µL saline. In order to initiate the reaction, 5 mM glucose was added to each well. To enhance the glucose uptake by the diaphragm, 1 unit of insulin was used in each well, and the volume was made up to 1 ml with saline. For inhibition studies, compound 7 at a concentration of 50 & 100 µM was used. From each well 100 µL of the assay mixture was aspirated at different time intervals (0, 5, 10, 20, 30 and 60 min). From this, glucose concentration was measured using Glucose oxidase (GOD POD) kit according to the manufacturer’s protocol.

T3 sequence (P23739 whole entry): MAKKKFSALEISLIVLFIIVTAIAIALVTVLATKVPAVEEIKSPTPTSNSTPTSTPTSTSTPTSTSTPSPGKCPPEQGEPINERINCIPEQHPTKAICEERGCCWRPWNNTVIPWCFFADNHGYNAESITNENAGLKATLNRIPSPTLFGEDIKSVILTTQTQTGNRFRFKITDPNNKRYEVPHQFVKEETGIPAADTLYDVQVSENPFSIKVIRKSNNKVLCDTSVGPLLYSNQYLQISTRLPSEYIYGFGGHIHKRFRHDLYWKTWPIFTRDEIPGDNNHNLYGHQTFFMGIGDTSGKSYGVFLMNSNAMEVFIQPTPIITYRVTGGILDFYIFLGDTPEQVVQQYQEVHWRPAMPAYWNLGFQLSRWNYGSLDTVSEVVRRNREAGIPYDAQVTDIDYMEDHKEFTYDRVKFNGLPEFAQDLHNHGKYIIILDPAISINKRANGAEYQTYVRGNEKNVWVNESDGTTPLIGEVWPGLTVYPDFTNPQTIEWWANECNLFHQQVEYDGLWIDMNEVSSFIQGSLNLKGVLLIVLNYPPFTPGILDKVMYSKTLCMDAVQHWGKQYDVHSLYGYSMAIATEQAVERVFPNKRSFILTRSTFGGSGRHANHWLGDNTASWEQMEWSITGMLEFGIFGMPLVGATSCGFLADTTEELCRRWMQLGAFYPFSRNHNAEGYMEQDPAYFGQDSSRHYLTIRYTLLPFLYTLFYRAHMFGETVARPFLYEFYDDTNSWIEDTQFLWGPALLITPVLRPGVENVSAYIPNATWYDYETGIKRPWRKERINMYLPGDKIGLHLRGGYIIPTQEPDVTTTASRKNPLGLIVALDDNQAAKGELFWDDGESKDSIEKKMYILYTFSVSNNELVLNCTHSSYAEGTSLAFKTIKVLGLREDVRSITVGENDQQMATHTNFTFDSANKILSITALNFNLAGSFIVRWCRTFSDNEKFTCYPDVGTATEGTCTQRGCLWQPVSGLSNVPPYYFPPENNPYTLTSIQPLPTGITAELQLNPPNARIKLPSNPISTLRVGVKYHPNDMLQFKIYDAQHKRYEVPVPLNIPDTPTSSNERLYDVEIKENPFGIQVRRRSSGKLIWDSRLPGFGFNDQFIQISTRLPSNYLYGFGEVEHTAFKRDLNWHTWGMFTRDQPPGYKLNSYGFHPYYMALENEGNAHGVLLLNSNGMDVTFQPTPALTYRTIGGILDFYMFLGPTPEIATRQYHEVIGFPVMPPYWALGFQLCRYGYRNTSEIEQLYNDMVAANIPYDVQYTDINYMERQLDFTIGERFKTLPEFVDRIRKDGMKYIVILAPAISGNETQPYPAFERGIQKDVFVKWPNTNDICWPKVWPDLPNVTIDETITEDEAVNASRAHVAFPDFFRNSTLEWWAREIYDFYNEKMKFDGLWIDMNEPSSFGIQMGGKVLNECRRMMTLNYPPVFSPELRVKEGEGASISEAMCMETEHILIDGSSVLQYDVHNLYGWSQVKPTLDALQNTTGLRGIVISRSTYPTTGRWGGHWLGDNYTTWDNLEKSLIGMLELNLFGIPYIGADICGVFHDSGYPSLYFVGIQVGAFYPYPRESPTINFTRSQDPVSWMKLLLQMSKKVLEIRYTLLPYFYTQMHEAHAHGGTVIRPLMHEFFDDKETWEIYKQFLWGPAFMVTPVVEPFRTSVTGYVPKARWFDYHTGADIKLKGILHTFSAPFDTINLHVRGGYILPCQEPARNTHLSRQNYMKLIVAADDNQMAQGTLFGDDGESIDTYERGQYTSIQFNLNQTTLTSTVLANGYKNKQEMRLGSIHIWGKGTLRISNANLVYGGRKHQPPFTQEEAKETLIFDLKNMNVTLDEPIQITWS
T1 sequence (P53341 whole entry): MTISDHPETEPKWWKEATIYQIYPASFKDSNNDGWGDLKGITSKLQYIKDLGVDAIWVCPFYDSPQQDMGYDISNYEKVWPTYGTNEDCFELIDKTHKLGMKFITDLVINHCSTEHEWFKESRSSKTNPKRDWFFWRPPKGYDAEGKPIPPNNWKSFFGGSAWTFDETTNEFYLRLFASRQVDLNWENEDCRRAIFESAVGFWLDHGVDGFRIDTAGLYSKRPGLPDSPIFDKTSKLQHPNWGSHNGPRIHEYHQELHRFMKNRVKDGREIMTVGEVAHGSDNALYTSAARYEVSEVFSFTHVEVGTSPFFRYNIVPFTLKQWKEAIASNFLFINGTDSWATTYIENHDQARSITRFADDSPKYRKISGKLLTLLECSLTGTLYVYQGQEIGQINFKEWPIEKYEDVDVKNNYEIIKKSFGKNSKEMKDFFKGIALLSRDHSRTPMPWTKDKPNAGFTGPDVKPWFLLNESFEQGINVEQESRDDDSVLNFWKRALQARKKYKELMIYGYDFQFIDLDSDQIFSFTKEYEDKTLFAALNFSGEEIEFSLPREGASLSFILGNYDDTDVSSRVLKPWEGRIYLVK

## Oc1ccc(C2Nc3cc(Cl)ccc3CO2)cc1 (stereo not shown) [compound 7, 4-(7-chloro-2,4-dihydro-1H-benzo[d][1,3]oxazin-2-yl)phenol]
α-Glucosidase
  IC50: 11.5 ± 0.1 µM
[1]
  IC50: 11 ± 0.3 µM
Rat intestinal maltase; 5 µM acarbose with compound 7 1–10 µM, compared with intestinal sucrase
  percentage inhibition of intestinal maltase in presence of acarbose: synergistically inhibited intestinal maltase more efficiently compared to intestinal sucrase
Rat intestinal maltase; compound 7 5–25 µM
  percentage inhibition of intestinal maltase: dose-dependent manner
Rat intestinal maltase; rat intestinal acetone powder, maltose 37 mM, 30 min
  IC50: 10 µM
Rat intestinal maltase; ratio of IC50 values, rat intestinal enzymes
  selectivity for maltase over sucrase: two-fold selective for maltase
Rat intestinal sucrase; compound 7 5–25 µM
  percentage inhibition of intestinal sucrase: dose-dependent manner
Rat intestinal sucrase; rat intestinal acetone powder, sucrose 56 mM, 60 min
  IC50: 20 µM
[2]; 50 mg/kg oral, maltose 3 g/kg, 90 min, compared to acarbose
  plasma glucose concentration: significantly reduced plasma glucose concentration at the 90 min time point compared to acarbose
[2]; 100 mg/kg oral, maltose 3 g/kg, compared to acarbose standard
  plasma glucose concentration: significantly more effective than the acarbose standard at all time points
[2]; compound 7 50 mg/kg together with acarbose 3 mg/kg, maltose, up to 180 min, compared to saline group
  plasma glucose concentration: plasma glucose concentration remained unchanged when compared to the saline treated group
[3]; 50 mg/kg oral, sucrose 3 g/kg, 0–180 min, compared to acarbose treated group
  plasma glucose concentration: significantly reduced the plasma glucose concentration throughout all time points
[3]; 100 mg/kg oral, sucrose 3 g/kg, compared to acarbose standard
  plasma glucose concentration: significantly more effective than the acarbose standard at all time points
[3]; compound 7 50 mg/kg together with acarbose 3 mg/kg, sucrose, up to 180 min, compared to saline group
  plasma glucose concentration: plasma glucose concentration remained unchanged when compared to the saline treated group
Porcine diaphragm
  glucose uptake by diaphragm: significantly blocked the glucose uptake both in control and insulin treated diaphragm in a dose-dependent manner
other
  melting point: 139 to 141 °C
